# In US12565680B2, “Cancer neoantigens and their utilities in cancer vaccines and TCR-based cancer immunotherapy” (THE METHODIST HOSPITAL SYSTEM, priority 2018, dated 2026):
# Columns and labels:
# T-cell clones of 135TIL = experiment: IFN-γ ELISA with tumor-reactive T-cell clones of 135TIL; type: cell-based, human
# Excerpt: Thus, immunogenic antigens can be generated from various sources or mechanisms [such as alternative ORFs, noncoding regions (3′ and 5′ UTRs, introns, noncoding RNA)]. […] All other tumor-reactive CD4^+ T-cell clones and CD8^+ T-cell clones recognized the mutation-derived neoantigens. […] To identify these two antigens recognized by these two CD4^+ T-cell clones, an Ii-fusion cDNA library derived from 135 mel tumor cells was constructed using experimental procedures. The Ii-fusion cDNA library pools (approximately 100 cDNA clones per pool) were transfected into 293IMDR3/DP4 or 293IMDR4/DP4 cells, followed by co-culturing with CD4^+ T-cell clones (135-1C1 or 135-1E1). After 2×10^5 cDNA clones, positive cDNA library pools that stimulate two T-cell clones, respectively, were identified based on IFN-γ release by ELISA (FIG. 6B). The positive pools were then transformed into Stbl3™ Escherichia coli, and single bacteria colonies were picked for plasmid DNA isolation. The screening assays were repeated in the same APCs transfected with the single cDNA-containing plasmids, and identified three clones that were able to stimulate 135-1C1 T cells, and two clones that reacted with 135-1E1 T cells (FIG. 6C). […] The 135-1E1 T cell-reactive cDNA clones encoded the product translated from an alternative reading frame of CTAG2 (LAGE1b) (FIG. 6C and FIG. 7A). […] LAGE1 is a cancer-testis antigen, with over 80% amino acid sequence identical to NY-ESO-1 protein, which is the most immunogenic tumor antigen identified to date. To define the T cell epitopes, wee generated a series of deletions and truncations of 3′ UTR region of ADIPOR2 gene, and narrowed down T cell epitope to a 26 aa peptide-coding sequence that stimulate 135-1C1 T cell response (FIG. 7D). Using similar approach, T cell epitopes were narrowed down to a 69 aa peptide-coding sequence of the LAGE1b alternative ORF2 for 135-1E1 T-cell recognition (FIG. 7E).
# Using systemic and multiple approaches, 8 cancer neoantigens were identified in 135 mel and 7 neoantigens in 136 mel. To understand the potential mechanisms that restrain the number of neoantigens that could induce T cell response, it was asked whether these neoantigens were equally recognized by T cells.
# T-cell cloning and expansion were performed. Briefly, T-cell clones from 135TILs were generated by a limited dilution (0.3 cell/well) in 96-well plates. Allogeneic PBMCs from normal donors were irradiated (60 Gy) and then seeded as feeder cells (7×10^4/well) in TCM containing 35 ng/ml OKT3 (anti-hCD3 antibody) (R&D Systems) and 35 ng/ml anti-hCD28 antibody (R&D Systems). On day 1, recombinant IL-2 was added to the final concentration of 300 IU/ml. On day 5, half of the culture medium was replaced with fresh TCM containing recombinant IL-2, and then the medium was changed every other day or when the medium color turned yellow. On day 14, T-cell clones were harvested, counted, tested for tumor reactivity. Tumor reactive T-cell clones were further expanded.
# (§1) 96-well tissue culture plates were coated with phosphate-buffered saline (PBS, GenDEPOT) containing 50 μg/ml poly-L-lysine (Millipore Sigma) at 37° C. 10 min later, the plates were rinsed twice with PBS. Tumor cells or 293-APCs were seeded at 5×10^4/well in the 96-well plate and cultured at 37° C., 5% CO2 for at least 4 h. For plasmid transfection, 250 ng of plasmid DNA were transfected into 293-APCs per well with 0.5 μl of Lipofectamine 2000 (Thermo Fisher Scientific) according to the manufacturer's instructions and incubated at 37° C., in 5% CO2 overnight. For peptide presentation, synthesized peptides (GeneScript) were added to each well at different final concentrations from 10^2 to 10^−4 μM and incubated at 37° C., 5% CO2. The cells transfected with plasmids or pulsed with peptides were washed with TCM twice, and then cocultured with T cells (1×10^5/well). After overnight culture, 50 μl of supernatant was collected for measuring cytokine release with an ELISA assay. […]
# 135TIL [1] = experiment: IFN-γ ELISA with bulk 135TIL (IVT-RNA electroporated 135EBV-B cells; peptide titration and truncation); type: cell-based, human; settings: serially diluted peptides
# Procedure: Due to low transfection efficiency of EBV-B cells, in vitro transcribed (IVT) RNA of 24 TMGs were generated and then electroporated them into 135EBV-B cells, followed by adding 135TIL cells for antigen recognition based on cytokine release assay.
# as §1, with “(1×10^5/well).” for “(1×10^5/well). After overnight culture, 50 μl of supernatant was collected for measuring cytokine release with an ELISA assay.”
# 96-well microplate (Greiner Bio-one) was coated with 50 μl of PBS containing anti-human IFN-γ (Thermo Fisher Scientific, primary antibody, 1 μg/ml) per well and incubated at 4° C. overnight. […] The plate was read at OD450 nm. The concentration of IFN-γ was calculated by standard reading. […]
# 135TIL [2] = experiment: TCR β CDR3 repertoire analysis; design: species or system human; settings: TCRβ CDR3 profiling
# Excerpt: To address this issue, PCDHB16 neoantigen-specific CD4^+ T cells were isolated by FACS sorting of PCDHB16-neoantigen T cells from freshly generated bulk T cells after stimulated PCDHB16 neoepitope peptide-pulsed 135EBV-B cells. Using the similar approach, MPG-specific CD8+ T cells were also purified from freshly generated bulk T cells after stimulated MPG neoepitope peptide-pulsed 135EBV-B cells. Genomic DNAs were isolated from the two purified neoantigen-specific T cell populations, as well as the parental bulk T cells, and used as templates for TCR β-chain CDR3 repertoire amplification. […] After the amplicons (from PCDHB16-, MPG-specific T cells and bulk 135TIL) were subjected to deep-sequenced via next-generation sequencing (reads>100,000 per sample), followed by bioinformatic analysis and TCR repertoire alignment. […] The relative TCR sequence frequencies that were identical to those in PCDHB16-specific T cells and MPG-specific T cells were determined in total 135TIL cell population (FIG. 10F). […]
# Cytokine Secretion Assay-Detection Kit (MACS Miltenyi Biotec) was used in cell-surface IFN-γ staining based on a commercial protocol. […] Finally cells were washed with cold buffer and ready for flow cytometric analysis. […]
# 135TIL [3] = experiment: Intracellular staining of IFN-γ after neoantigen peptide stimulation, 135TIL; type: cell-based, human
# Procedure: T cells were stimulated by various in vitro methods, such as tumor cells, peptides or DNA encoding neoantigens, etc. and induced to release cytokines. Stimulated T cells were resuspended in 100 μl of Cytofix/Cytoperm solution (BD Biosciences) per well for microwell plates (or 250 μl for tubes) and incubated for 20 min at 4° C. for cell fixation. Fixed cells were permeabilized by washing twice in 1× Perm/Wash buffer (BD Biosciences). Then the fixed/permeabilized cells were thoroughly resuspended in 50 μl of 1× Perm/Wash buffer containing 1 μl of phycoerythrin (PE)-conjugated IFN-γ antibody (Thermo Fisher Scientific) and incubate at 4° C. for 30 min in the dark. After that the cells were washed twice with 1× Perm/Wash buffer and ready for flow cytometric analysis.
Sequence,"recognition of antigen peptides by specific T-cell clones (T-cell clones of 135TIL; peptide titration, 135-1C1 (ADIPOR2), 135-1E1 (LAGE1b))",recognition of titrated peptides by 135TIL (IFN-γ ELISA) (135TIL [1]),percentage of CD8^+ tumor-reactive T-cell clones recognizing the neoantigen (T-cell clones of 135TIL; 40 clones),number of CD8^+ tumor-reactive T-cell clones recognizing the neoantigen (T-cell clones of 135TIL; of 40 clones),neoantigen-specific TCRs in the total 135TIL TCRs (135TIL [2]),share of tumor-reactive CD8^+ T cells specific for the neoantigen (135TIL [3]),CD8^+ T cells recognizing the neoantigen in the total T cell population (135TIL [3]; intracellular cytokine staining)
"MKLTSLMCNPVKSPFFGCVCGHVPISMCVSTCSSLPTASCALDLTVLAENSHQVGA [ADIPOR2, 56 aa reading frame in the 3′UTR of gene ADIPOR2]",strongly recognized,little or no activity,,,,,
"YGMYFCMNISSQEDGACVLLRALEP [MPG, immunodominant MHC-I neoantigen of patient #135]",,,67.5%,27,25.5%,65%,12.3%
